# “Also recorded” adds a separate entry of the source. Structures can show the parent of a compound that is named as a salt.
# Key:
# Type in all cases: physicochemical
# [1] = Gravimetric vapour sorption (GVS)
# Procedure: Sorption isotherms were obtained using a Hiden IGASorp moisture sorption analyser, controlled by CFRSorp software. The sample temperature was maintained at 25° C. by a Huber re-circulating water bath. The humidity was controlled by mixing streams of dry and wet nitrogen, with a total flow rate of 250 ml/min. The relative humidity (RH) was measured by a calibrated Vaisala RH probe (dynamic range of 0-95% RH), located near the sample. The weight change, (mass relaxation) of the sample as a function of % RH was constantly monitored by the microbalance (accuracy ±0.001 mg). Typically 10-20 mg of sample was placed in a tared mesh stainless steel basket under ambient conditions. The sample was loaded and unloaded at 40% RH and 25° C. (typical room conditions). A moisture sorption isotherm was performed as outlined below (2 scans giving 1 complete cycle). The standard isotherm was performed at 25° C. at 10% RH intervals over a 0-90% RH range.
# The software uses a least squares minimisation procedure together with a model of the mass relaxation, to predict an asymptotic value. The measured mass relaxation value must be within 5% of that predicted by the software, before the next % RH value is selected. The minimum equilibration time was set to 1 hour and the maximum to 4 hours. The sample was recovered after completion of the isotherm and re-analysed by XRPD.
# [2] = Solubility assessment using free base Hydrate Form 2; settings: RT (cell says RT, head 50° C.)
# Procedure: The best solvent systems (clear solutions) were methanol:anisole 1:1 and DMSO (10 volumes, at RT), dioxane (10 volumes, 50° C.), chloroform (20 volumes, RT). […]
# [3] = Polymorph screen: maturation (temperature cycling RT/50° C.) in solvents
# Procedure: One of 21 solvents was added to each vial in a number of aliquots (up to 30 volumes), with shaking. All the samples were then placed under maturation between RT to 50° C. (4 hours at each temperature) for 3 days. After maturation the samples were analysed by XRPD. Clear solutions were cooled to −20° C. (freezer). If no precipitation occurred samples were evaporated at RT.
# Samples were placed under maturation between RT-50° C. (4 hours cycle) for 3 days. After maturation the samples were analyzed by XRPD. Clear solutions were then cooled to −20° C. (freezer). If no precipitation occurred, samples were evaporated at RT.
# Bis-Sulfuric acid salt Form 1 of Compound 1 (ca. 35 mg) was weighed into vials. The corresponding solvents and solvent mixtures were added in portions of (a total of) 5, 10, 20, and 30 volumes at 50° C., with shaking, aiming for clear solutions. After each addition, the vials were allowed to shake for 20 minutes, after which observations were made. Solutions were allowed to evaporate, whereas slurries were set for 8 hour temperature cycling maturation, between RT and 50° C., for 5 days.
# The oils obtained by solvent evaporation were used for the maturation screen. Anhydrous solvents (5 volumes; 100 μL) were used in order to minimise the amount of water present. Any solutions were allowed to slowly evaporate, whereas slurries were set for 8 hour temperature cycling maturation, between RT and 50° C. After 24 hours, most oils had not mixed with the solvents, and these were scratched with a spatula, producing slurries. These were matured for a further 24 hours before performing XRPD analysis.
# Amorphous free base Compound 1 (ca. 25 mg) was weighed into vials. The selected solvents and solvent mixtures (5 to 20 volumes) were added with stirring. Any solutions were allowed to slowly evaporate, whereas slurries were set for 8 hour temperature cycling maturation, between RT and 50° C., for 2 days.
# Crystals were ground in order to analyse them by XRPD. Suspensions were set for temperature cycling for a total of five days after which time XRPD analysis was carried out. […] Similar to the screen in Example 20, these XRPD patterns show slight differences (FIG. 37). However, solids from both screens obtained from the same solvent show a matching XRPD pattern, also supporting that this is a series of isostructural solvates. […]
# [4] = Storage at 40° C./75% RH (solid-state stability); settings: for Stability on storage at 40° C./75% RH: 1 week, solid form by XRPD; for Storage 40° C./75% RH: salt screen solids stored 1 week, outcome / XRPD pattern after storage
# Procedure: The crystalline solids were filtered, dried at ambient conditions, and stored at 40° C./75% RH for 1 week and analyzed by ^1H NMR/IC.
# Samples from the screen using amorphous free base Compound 1 were analysed by ^1H-NMR and DSC, and re-analysis by XRPD was also carried out after drying at 50° C./vacuum and storage at 40° C./75% RH (the same sample was dried and stored at elevated humidity).
compound,measurement,setting,value
COc1cc(-c2cccc3cc([C@H](C)Nc4nc(N)ncc4C#N)n(-c4ccccc4)c(=O)c23)ccn1 [Form 4 of Free Base Compound 1],GVS: moisture on loading,[1]; 25° C.,0.3 % w/w
same,GVS: uptaken between 70-90% RH,"[1]; 25° C., with hysteresis on desorption",4.8 % w/w
CC(=O)O.COc1cc(-c2cccc3cc([C@H](C)Nc4nc(N)ncc4C#N)n(-c4ccccc4)c(=O)c23)ccn1.COc1cc(-c2cccc3cc([C@H](C)Nc4nc(N)ncc4C#N)n(-c4ccccc4)c(=O)c23)ccn1 [Batch 1 of Form 6],GVS: XRPD after the experiment,[1],anhydrous Form 4
same,GVS: moisture on loading,[1]; 25° C.,6.3% w/w moisture on
same,GVS: reversible moisture uptake between 0-90% RH,[1]; second cycle,cycle shows 4.9%
COc1cc(-c2cccc3cc([C@H](C)Nc4nc(N)ncc4C#N)n(-c4ccccc4)c(=O)c23)ccn1.O [FB Hydrate Form 2],Solubility,"[2]; DMSO, 10 vols",✓ (RT)
same,Solubility,"[2]; MeOH/anisole, 10 vols",✓ (RT)
same,Solubility,"[2]; chloroform, 20 vols",✓ (RT)
same,XRPD,"[3]; 1-butanol, Maturation",Crystalline Form 5
same,XRPD,"[3]; 2-MeTHF, evaporation yielded oil, maturation of oil",Crystalline Form 5
same,XRPD,"[3]; Acetone, Maturation",Crystalline Form 5
same,XRPD,"[3]; DCM:MeOH 1:1, Crystallization in fridge",Crystalline Form 5 + Form 1
same,XRPD,"[3]; DCM, Crystallization in fridge",Crystalline Form 5
same,XRPD,"[3]; DMSO, no crystallization in fridge, set for evaporation",Amorphous
same,XRPD,"[3]; Dioxane, evaporation yielded oil, maturation of oil",Crystalline Form 5 + Form 3
same,XRPD,"[3]; EtOAc, Maturation",Crystalline Form 5
same,XRPD,"[3]; EtOH/5% water, Maturation",Crystalline Form 5
same,XRPD,"[3]; EtOH/water 1:1, Maturation",Crystalline Form 2
same,XRPD,"[3]; EtOH, Maturation",Crystalline Form 5
same,XRPD,"[3]; IPA, Maturation",Crystalline Form 5
same,XRPD,"[3]; IPAc, Maturation",Crystalline Form 5
same,XRPD,"[3]; MIBK, Maturation",Crystalline Form 5
same,XRPD,"[3]; MeCN/5% water, Crystallization in fridge",Crystalline Form 5
same,XRPD,"[3]; MeOH/anisole, Crystallization in fridge",Crystalline Form 5
same,XRPD,"[3]; THF, Crystallization in fridge",Crystalline Form 5
same,XRPD,"[3]; acetonitrile, Maturation",Crystalline Form 5
same,XRPD,"[3]; chloroform, cooling in fridge yielded oil, maturation of oil",Crystalline Form 5
"COc1cc(-c2cccc3cc([C@H](C)Nc4nc(N)ncc4C#N)n(-c4ccccc4)c(=O)c23)ccn1 [Form 6 of the free base of Compound 1, (S)-2-amino-4-((1-(8-(2-methoxypyridin-4-yl)-1-oxo-2-phenyl-1,2-dihydroisoquinolin-3-yl)ethyl)amino)pyrimidine-5-carbonitrile]",GVS: form change with humidity,[1]; at 0% RH,Desolvation to the anhydrous Form 4
same,Stability on storage at 40° C./75% RH,[4],converts to Form 3
same,Storage at elevated humidity,"[4]; elevated humidity conditions, solid form",conversion to Hydrate Form 3
CC(=O)c1ccc2c(c1)[C@@H]1C=CC[C@@H]1[C@H](c1cc3c(cc1Br)OCO3)N2 [amorphous material],XRPD,"[3]; 2-MeTHF 200 μL, cycling RT/50° C.",Crystalline Form 5
same,XRPD,"[3]; Acetone 100 μL, cycling RT/50° C.",Crystalline Form 5
same,XRPD,"[3]; Acetonitrile 200 μL, cycling RT/50° C.",Crystalline Form 5
same,XRPD,"[3]; DCM 150 μL, cycling RT/50° C.",Crystalline Form 5
same,XRPD,"[3]; DCM:MeOH 1:1 150 μL, cycling RT/50° C.",Crystalline Form 5
same,XRPD,"[3]; DME 150 μL, cycling RT/50° C.",Crystalline Form 5
same,XRPD,"[3]; EtOAc 100 μL, cycling RT/50° C.",Crystalline Form 5
same,XRPD,"[3]; EtOH 250 μL, cycling RT/50° C.",Crystalline Form 5
same,XRPD,"[3]; EtOH/5% water 150 μL, cycling RT/50° C.",Crystalline Form 5
same,XRPD,"[3]; H2O 450 μL, cycling RT/50° C.",Partially crystalline =; also recorded: matches FB Pattern 4
same,XRPD,"[3]; IPA 150 μL, cycling RT/50° C.",Crystalline Form 5
same,XRPD,"[3]; IPAc 300 μL, 16 hours maturation",Crystalline Form 5
same,XRPD,"[3]; MIBK 100 μL, cycling RT/50° C.",Crystalline Form 5
same,XRPD,"[3]; MeCN/5% water 150 μL, cycling RT/50° C.",Crystalline Form 5
same,XRPD,"[3]; MeOH 250 μL, cycling RT/50° C.",Crystalline Form 5
same,XRPD,"[3]; TBME 300 μL, cycling RT/50° C.",Crystalline Form 5
same,XRPD,"[3]; THF 150 μL, cycling RT/50° C.",Crystalline Form 5
same,XRPD,"[3]; THF/5% water 150 μL, cycling RT/50° C.",Crystalline Form 5
"COc1cc(-c2cccc3cc([C@H](C)Nc4nc(N)ncc4C#N)n(-c4ccccc4)c(=O)c23)ccn1 [Form 1 of the isethionate salt of Compound 1] [(S)-2-amino-4-((1-(8-(2-methoxypyridin-4-yl)-1-oxo-2-phenyl-1,2-dihydroisoquinolin-3-yl)ethyl)amino)pyrimidine-5-carbonitrile]",Stability on storage at 40° C./75% RH,[4],deliquesces
same,Stability on storage at 40° C./75% RH,[4]; listed as isethionate,deliquesced
same,Storage 40° C./75% RH,[4]; listed as 2-Hydroxyethane sulfonic acid,Deliquesced
"COc1cc(-c2cccc3cc([C@H](C)Nc4nc(N)ncc4C#N)n(-c4ccccc4)c(=O)c23)ccn1 [Form 1 of the hydrochloride salt of Compound 1] [(S)-2-amino-4-((1-(8-(2-methoxypyridin-4-yl)-1-oxo-2-phenyl-1,2-dihydroisoquinolin-3-yl)ethyl)amino)pyrimidine-5-carbonitrile]",Stability on storage at 40° C./75% RH,[4],deliquesces
same,Stability on storage at 40° C./75% RH,[4]; listed as hydrochloride,deliquesced
same,Storage 40° C./75% RH,[4]; listed as Hydrochloric acid,Deliquesced
"COc1cc(-c2cccc3cc([C@H](C)Nc4nc(N)ncc4C#N)n(-c4ccccc4)c(=O)c23)ccn1 [Form 4 of the free base of Compound 1, (S)-2-amino-4-((1-(8-(2-methoxypyridin-4-yl)-1-oxo-2-phenyl-1,2-dihydroisoquinolin-3-yl)ethyl)amino)pyrimidine-5-carbonitrile]",GVS: form change with humidity,[1]; above 80% RH,"hydrates above 80% RH, but reversibly dehydrates back at 40% RH"
same,XRPD after Storage at 40° C./75% RH,[4]; screening sample from H2O,No changes

# Reference: US9481667B2, “Salts and solid forms of isoquinolinones and composition comprising and methods of using the same” (Infinity Pharmaceuticals, Inc., priority 2013, dated 2016)
